# Data taken from ChEMBL document CHEMBL1201862, “PubChem BioAssay data set” (2004).
# Active and inactive are the calls of the source.
# Assays:
# HeLa = assay: viability loss in HeLa cells – cell-based, 24 h, cherry-picked samples, cytotoxicity control, dose response (AID 504726); format: functional; details: Homo sapiens;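 also: potency for cytotoxicity as loss of luminescence signal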
# [1] = biological target: Voltage-dependent T-type calcium channel subunit alpha-1H (Homo sapiens, UniProt O95180); format: functional;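 also: channel activity triggered by adding a high calcium stimulation buffer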
# Voltage-dependent T-type calcium channel subunit alpha-1H, sequence (O95180 whole entry): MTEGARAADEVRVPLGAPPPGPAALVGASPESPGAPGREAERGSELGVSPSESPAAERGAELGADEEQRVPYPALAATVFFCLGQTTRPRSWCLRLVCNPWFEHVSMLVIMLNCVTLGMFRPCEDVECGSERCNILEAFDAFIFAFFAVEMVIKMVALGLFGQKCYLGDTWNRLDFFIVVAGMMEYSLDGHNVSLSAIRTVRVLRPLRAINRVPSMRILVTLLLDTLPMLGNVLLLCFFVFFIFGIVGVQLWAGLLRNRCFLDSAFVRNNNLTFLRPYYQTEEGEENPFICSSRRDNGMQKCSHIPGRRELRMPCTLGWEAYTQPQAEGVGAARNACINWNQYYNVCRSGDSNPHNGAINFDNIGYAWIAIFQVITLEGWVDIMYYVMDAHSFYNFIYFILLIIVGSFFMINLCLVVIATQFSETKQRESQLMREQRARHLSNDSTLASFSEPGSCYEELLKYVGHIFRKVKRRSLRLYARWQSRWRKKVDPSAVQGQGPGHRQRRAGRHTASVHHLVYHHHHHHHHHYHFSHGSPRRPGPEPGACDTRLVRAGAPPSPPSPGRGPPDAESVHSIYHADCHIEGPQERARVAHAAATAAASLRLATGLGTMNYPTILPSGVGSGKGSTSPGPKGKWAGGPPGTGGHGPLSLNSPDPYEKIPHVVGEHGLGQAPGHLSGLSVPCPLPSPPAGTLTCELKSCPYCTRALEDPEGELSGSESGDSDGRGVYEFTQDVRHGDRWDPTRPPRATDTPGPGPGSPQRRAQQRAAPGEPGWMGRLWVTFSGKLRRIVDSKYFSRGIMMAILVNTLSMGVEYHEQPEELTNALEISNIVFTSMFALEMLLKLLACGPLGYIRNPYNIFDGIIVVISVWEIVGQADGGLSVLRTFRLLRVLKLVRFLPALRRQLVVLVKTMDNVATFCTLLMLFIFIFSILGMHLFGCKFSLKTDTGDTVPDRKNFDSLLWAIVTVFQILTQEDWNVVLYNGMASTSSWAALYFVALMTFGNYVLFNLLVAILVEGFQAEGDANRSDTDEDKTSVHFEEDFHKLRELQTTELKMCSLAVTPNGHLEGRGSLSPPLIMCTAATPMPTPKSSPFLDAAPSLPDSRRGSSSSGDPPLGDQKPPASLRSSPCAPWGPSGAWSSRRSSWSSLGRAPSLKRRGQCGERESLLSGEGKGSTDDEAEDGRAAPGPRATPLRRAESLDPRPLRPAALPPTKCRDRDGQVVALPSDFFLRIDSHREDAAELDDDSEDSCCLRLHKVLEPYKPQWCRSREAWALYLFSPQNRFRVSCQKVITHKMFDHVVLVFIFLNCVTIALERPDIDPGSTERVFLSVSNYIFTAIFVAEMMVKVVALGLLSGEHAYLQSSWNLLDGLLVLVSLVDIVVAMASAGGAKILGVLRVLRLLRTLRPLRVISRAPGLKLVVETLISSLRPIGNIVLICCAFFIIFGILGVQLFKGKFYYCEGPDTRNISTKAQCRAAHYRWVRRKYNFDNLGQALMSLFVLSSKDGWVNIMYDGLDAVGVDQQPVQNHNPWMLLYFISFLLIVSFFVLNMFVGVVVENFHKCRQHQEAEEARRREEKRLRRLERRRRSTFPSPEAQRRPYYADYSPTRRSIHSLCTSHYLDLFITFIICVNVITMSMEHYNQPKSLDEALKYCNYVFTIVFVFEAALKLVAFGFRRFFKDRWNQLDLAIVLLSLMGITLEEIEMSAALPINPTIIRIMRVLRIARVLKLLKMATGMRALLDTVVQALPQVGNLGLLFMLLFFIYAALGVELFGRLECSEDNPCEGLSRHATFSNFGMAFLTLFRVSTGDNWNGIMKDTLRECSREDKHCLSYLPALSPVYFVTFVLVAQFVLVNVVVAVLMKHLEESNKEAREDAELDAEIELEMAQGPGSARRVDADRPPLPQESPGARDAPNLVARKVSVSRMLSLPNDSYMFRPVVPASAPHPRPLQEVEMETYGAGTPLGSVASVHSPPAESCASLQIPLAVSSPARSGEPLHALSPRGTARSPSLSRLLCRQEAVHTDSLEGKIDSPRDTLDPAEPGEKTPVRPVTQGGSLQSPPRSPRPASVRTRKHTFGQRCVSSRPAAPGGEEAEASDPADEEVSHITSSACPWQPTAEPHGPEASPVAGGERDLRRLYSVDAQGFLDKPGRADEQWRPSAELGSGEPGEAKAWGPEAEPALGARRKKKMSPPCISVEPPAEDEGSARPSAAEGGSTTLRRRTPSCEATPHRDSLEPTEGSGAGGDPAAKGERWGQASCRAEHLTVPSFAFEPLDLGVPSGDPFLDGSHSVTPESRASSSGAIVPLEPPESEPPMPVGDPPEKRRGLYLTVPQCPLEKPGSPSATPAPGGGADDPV
# [2] = A cytotoxicity screen of small molecule inhibitors of the PhoP region in Salmonella typhi identified in the primary screen. [Related pubchem assays: 1850, 1864, 1985 ]; format: functional
# [3] = biological target: G-protein coupled receptor 55 (Homo sapiens, UniProt Q9Y2T6); assay: selective activators of receptor GPR55 – imaging, U2OS cells, beta-arrestin-GFP redistribution, primary screen (AID 1961); format: functional
# G-protein coupled receptor 55, sequence (Q9Y2T6 whole entry): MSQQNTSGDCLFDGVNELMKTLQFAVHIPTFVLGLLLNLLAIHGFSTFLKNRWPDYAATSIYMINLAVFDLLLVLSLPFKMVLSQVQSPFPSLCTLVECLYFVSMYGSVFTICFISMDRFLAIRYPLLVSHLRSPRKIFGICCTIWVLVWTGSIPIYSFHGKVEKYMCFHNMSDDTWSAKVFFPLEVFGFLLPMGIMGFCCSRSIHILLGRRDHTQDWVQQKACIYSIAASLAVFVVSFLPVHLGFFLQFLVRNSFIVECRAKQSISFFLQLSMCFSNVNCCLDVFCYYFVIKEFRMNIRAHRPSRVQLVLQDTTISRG
# [4] = blockade of melanocortin 4 receptor signaling – cell-based, plate reader, cherry pick, counter-screen for LGR2 antagonist project, dose response (AID 743444); format: functional;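 also: transfected HEK 293 cells stimulated with alpha-MSH peptide; potency of inhibitors of the alpha-MSH evoked signal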
# [5] = biological target: T1, Rac GTPase-activating protein 1 (Homo sapiens, UniProt Q9H0H5); assay: blockers of MgcRacGAP-driven Rac1 GTP hydrolysis – biochemical, ADP Hunter fluorescence, primary and confirmatory, confirmation (AID 624330); format: functional
# T1 sequence (Q9H0H5 whole entry): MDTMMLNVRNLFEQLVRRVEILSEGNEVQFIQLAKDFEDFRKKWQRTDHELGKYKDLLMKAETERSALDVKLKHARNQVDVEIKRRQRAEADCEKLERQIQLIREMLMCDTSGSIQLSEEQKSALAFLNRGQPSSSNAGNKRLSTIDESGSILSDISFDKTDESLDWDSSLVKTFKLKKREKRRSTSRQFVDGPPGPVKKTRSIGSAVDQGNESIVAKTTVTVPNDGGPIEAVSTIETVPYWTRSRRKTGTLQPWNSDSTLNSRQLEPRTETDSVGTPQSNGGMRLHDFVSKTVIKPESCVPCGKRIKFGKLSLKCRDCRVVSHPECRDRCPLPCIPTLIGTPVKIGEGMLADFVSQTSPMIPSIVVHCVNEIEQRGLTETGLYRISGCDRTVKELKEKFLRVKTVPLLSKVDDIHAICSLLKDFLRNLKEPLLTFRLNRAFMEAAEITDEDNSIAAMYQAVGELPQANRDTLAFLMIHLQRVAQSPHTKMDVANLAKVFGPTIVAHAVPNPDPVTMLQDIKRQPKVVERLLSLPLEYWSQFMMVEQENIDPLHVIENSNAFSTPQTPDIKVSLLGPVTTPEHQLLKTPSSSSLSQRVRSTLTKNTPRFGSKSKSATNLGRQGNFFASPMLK
# [6] = blockers of bursicon-stimulated LGR2 cAMP reporter – cell-based, HEK293, CRE-luciferase reporter, cherry pick, set 2, dose response (AID 743343); format: functional;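 also: transfected cells were stimulated with diluted bursicon conditioned medium after compound addition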
# [7] = biological target: DNA dC->dU-editing enzyme APOBEC-3G (Homo sapiens, UniProt Q9HC16); assay: Dose Response confirmation of small molecule APOBEC3G DNA Deaminase Inhibitors via a fluorescence-based single-stranded DNA deaminase assay. [Related pubchem assays (depositor defined):AID493012, AID493028]; format: functional
# DNA dC->dU-editing enzyme APOBEC-3G, sequence (Q9HC16 whole entry): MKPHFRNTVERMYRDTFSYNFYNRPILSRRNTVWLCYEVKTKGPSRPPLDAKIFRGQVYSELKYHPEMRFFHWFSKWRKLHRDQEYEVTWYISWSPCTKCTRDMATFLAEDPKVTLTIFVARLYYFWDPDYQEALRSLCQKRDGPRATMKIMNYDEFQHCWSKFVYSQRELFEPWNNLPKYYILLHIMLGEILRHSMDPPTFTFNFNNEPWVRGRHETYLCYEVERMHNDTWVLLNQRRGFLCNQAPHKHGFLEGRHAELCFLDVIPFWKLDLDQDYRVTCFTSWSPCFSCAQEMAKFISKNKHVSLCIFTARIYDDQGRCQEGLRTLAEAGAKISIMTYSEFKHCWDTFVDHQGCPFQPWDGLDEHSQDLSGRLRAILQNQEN
# [8] = biological target: T2, Alkaline phosphatase, tissue-nonspecific isozyme (Homo sapiens, UniProt P05186); assay: potency against alkaline phosphatase TNAP – biochemical, luminescent, dose response, SAR follow-up (AID 1056)
# T2 sequence (P05186 whole entry): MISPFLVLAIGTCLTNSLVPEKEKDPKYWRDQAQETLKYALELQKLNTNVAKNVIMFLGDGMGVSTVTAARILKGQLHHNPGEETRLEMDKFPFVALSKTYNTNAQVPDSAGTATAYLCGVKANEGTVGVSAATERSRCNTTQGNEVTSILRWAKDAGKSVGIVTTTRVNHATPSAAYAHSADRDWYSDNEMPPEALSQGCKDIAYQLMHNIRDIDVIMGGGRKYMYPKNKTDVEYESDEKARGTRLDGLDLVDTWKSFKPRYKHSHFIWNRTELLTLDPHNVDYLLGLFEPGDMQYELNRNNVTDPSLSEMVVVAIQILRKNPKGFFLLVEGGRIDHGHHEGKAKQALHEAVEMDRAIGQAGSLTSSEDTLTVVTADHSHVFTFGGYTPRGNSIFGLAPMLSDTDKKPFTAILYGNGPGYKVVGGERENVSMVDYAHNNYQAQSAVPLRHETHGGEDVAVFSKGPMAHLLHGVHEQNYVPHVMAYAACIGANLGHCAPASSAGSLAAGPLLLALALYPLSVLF
# [9] = biological target: Phosphoethanolamine/phosphocholine phosphatase (Homo sapiens, UniProt Q8TCT1); assay: SAR assay for compounds that inhibit PHOSPHO1. [Related pubchem assays (depositor defined):AID1545, AID1565, AID1574]
# Phosphoethanolamine/phosphocholine phosphatase, sequence (Q8TCT1 whole entry): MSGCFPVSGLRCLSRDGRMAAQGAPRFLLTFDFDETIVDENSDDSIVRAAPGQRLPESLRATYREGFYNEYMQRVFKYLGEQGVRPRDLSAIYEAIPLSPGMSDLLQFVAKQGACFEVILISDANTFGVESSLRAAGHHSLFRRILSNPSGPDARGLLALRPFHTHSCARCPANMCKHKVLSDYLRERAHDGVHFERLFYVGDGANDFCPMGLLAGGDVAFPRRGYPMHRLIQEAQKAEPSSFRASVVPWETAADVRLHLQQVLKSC
# Beta Lactamase = Beta Lactamase (Pseudomonas aeruginosa, UniProt Q932Y6); assay: BLA reporter interference, concentration series – BLA reporter cells, FRET fluorescence, artefact control for NOD2-RIPK2 interaction inhibitor project, dose response (AID 651552); format: functional, cell-based
# Beta Lactamase, sequence (Q932Y6 whole entry, the tested form may be a part): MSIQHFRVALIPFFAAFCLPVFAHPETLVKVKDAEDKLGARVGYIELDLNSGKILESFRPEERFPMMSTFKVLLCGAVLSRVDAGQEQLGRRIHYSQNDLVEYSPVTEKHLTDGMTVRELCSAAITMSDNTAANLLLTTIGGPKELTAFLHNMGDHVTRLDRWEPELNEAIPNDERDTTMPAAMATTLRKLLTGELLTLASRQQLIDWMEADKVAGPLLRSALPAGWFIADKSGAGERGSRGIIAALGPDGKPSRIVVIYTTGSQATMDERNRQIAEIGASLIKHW
# [10] = Fluorescence-based cell-based high throughput dose response assay for inhibitors of the interaction of nucleotide-binding oligomerization domain containing 2 (NOD2) and the receptor-interacting serine-threonine kinase 2 (RIPK2).; format: functional; details: Homo sapiens
# [11] = viability loss in HeLa cells – cytotoxicity control for MgcRacGAP inhibitor project, dose response (AID 624300); format: functional
# [12] = biological target: T3, Ubiquitin-conjugating enzyme E2 N (Homo sapiens, UniProt P61088); format: functional;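 also: Dose-response confirmation in a TR-FRET assay detecting UBC13-driven polyubiquitin chain formation, inhibition measured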
# T3 sequence (P61088 whole entry): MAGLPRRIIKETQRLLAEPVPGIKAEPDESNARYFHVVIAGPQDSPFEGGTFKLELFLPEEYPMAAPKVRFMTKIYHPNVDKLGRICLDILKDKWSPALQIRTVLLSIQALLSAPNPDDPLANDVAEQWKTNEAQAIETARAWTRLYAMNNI
# [13] = biological target: T4, Microphthalmia-associated transcription factor (Homo sapiens, UniProt O75030); assay: reducers of TRPM1 reporter luminescence, concentration series – cell-based, SK-MEL-5, cherry-picked, set 3, MITF inhibitor project, dose response (AID 493073); format: functional;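 also: SK-MEL-5 melanoma cells with luciferase driven by the MITF target TRPM1 promoter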
# T4 sequence (O75030 whole entry): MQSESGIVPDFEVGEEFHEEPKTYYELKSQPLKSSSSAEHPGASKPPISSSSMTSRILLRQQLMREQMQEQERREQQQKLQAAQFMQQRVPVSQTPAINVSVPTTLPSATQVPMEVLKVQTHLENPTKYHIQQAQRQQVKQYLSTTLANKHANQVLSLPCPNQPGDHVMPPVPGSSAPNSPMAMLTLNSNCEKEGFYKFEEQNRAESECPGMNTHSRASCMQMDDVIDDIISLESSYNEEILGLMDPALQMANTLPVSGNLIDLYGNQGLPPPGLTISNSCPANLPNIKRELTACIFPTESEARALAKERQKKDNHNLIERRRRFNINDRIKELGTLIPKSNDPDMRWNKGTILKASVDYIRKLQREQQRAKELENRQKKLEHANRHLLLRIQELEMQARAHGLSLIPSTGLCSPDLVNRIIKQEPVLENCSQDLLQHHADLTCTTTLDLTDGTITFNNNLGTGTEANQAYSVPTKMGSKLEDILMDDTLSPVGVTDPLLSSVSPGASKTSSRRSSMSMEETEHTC
# Procathepsin L = Procathepsin L (Homo sapiens, UniProt P07711)
# Procathepsin L, sequence (P07711 whole entry): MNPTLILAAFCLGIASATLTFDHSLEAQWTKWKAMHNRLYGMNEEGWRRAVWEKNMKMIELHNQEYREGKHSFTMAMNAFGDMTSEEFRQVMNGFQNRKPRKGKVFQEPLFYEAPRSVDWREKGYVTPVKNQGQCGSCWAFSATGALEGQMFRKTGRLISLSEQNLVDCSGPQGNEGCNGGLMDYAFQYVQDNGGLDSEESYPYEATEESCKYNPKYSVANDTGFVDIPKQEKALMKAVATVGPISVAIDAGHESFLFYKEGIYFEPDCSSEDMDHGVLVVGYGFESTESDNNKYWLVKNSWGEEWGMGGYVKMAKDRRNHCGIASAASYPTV
# Aspartyl aminopeptidase = biological target: T5, Aspartyl aminopeptidase (Plasmodium falciparum 3D7, UniProt Q8I2J3)
# T5 sequence (Q8I2J3 whole entry): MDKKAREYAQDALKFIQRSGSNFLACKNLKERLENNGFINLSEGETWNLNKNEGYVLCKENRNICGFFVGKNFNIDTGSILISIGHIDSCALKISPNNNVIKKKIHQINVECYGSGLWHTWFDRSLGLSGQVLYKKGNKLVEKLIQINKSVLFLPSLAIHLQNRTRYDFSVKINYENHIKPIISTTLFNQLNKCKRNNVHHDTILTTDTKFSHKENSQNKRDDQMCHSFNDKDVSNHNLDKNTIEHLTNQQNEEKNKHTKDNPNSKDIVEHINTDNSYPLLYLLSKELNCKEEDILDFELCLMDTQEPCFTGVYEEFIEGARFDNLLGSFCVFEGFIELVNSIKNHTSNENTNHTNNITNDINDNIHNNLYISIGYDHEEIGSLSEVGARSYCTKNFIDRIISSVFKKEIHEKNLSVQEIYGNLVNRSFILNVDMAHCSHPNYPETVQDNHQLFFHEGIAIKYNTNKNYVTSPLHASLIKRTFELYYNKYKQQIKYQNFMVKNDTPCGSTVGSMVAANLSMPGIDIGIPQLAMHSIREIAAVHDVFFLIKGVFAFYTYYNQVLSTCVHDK
# [14] = biological target: T6, Replicative DNA helicase DnaB (Mycobacterium tuberculosis, UniProt P9WMR3); assay: DnaB intein splicing inhibitors, dose response, biochemical, cell-free fluorescence (AID 449749); format: functional
# T6 sequence (P9WMR3 whole entry): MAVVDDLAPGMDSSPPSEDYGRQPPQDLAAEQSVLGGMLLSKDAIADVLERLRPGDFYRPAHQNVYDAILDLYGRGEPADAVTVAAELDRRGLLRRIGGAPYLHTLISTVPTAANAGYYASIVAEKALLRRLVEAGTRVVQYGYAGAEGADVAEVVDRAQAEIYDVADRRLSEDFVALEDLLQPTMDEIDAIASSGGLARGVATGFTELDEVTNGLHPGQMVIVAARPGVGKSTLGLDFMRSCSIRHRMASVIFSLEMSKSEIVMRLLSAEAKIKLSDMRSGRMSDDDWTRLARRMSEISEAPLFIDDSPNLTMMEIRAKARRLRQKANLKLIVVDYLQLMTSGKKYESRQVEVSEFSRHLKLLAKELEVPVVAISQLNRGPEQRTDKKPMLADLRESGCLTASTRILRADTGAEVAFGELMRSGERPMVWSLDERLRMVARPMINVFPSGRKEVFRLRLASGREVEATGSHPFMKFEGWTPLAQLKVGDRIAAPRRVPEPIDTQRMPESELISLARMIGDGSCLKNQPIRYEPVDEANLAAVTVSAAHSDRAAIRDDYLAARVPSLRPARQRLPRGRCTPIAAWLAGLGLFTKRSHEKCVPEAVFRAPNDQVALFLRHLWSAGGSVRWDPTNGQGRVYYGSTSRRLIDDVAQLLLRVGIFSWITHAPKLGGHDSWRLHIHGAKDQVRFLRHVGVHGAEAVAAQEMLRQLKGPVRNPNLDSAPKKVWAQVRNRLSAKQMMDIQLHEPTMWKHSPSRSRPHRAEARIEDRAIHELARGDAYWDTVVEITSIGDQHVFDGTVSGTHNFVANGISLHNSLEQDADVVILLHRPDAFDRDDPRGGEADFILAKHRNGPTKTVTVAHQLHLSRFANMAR
# Protein RecA = biological target: T7, Protein RecA (Mycobacterium tuberculosis, UniProt P9WHJ3); assay: Fluorescence Cell-Free Homogeneous Dose Retest to Identify Inhibitors of RecA-Intein Splicing Activity. [Related pubchem assays (depositor defined):AID2097, AID2223, AID489010, AID492950]; format: functional
# T7 sequence (P9WHJ3 whole entry): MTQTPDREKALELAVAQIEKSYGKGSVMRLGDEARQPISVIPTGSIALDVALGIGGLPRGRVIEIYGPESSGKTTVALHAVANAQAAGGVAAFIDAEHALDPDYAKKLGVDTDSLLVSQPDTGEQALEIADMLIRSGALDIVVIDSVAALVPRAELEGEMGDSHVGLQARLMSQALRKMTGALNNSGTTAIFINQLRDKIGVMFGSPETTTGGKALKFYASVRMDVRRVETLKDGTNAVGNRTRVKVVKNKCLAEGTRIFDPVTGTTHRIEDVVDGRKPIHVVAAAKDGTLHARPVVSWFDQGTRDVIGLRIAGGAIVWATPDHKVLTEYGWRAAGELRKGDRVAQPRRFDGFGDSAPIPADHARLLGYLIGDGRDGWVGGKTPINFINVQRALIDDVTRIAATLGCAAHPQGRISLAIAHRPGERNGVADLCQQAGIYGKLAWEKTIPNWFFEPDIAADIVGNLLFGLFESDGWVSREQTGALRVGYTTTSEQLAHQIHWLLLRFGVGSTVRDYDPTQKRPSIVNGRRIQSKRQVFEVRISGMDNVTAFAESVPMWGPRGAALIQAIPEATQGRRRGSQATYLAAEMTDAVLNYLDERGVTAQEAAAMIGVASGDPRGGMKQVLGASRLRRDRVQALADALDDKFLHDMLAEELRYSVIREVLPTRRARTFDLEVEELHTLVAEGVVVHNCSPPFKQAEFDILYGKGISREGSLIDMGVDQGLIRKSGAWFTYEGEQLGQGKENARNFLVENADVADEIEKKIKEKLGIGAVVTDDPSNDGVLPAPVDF
# [15] = biological target: Peroxisome proliferator-activated receptor gamma/Nuclear receptor corepressor 2 (Homo sapiens, UniProt P37231+Q9Y618); format: functional
# [16] = biological target: Photoreceptor-specific nuclear receptor (Homo sapiens, UniProt Q9Y5X4); format: functional;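 also: potency for compounds that break the NR2E3 corepressor complex and count as activators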
# Photoreceptor-specific nuclear receptor, sequence (Q9Y5X4 whole entry): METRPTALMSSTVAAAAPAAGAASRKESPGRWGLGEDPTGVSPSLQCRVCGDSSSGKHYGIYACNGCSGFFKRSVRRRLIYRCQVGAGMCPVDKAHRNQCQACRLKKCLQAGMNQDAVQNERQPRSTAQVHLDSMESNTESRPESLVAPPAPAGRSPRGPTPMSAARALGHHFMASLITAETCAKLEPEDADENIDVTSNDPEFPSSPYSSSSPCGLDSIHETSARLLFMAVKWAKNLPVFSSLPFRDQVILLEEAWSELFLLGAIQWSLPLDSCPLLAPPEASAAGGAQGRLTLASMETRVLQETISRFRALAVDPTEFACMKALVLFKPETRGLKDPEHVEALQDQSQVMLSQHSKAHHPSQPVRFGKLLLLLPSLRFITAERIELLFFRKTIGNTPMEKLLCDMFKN
structure (smiles),measurement,setting,value
O=C1c2ccccc2C(=O)N1Cc1ccc2c(c1)OCO2,AC50,HeLa,42.5 µM (active)
O=C(Nc1ccc(S(=O)(=O)N2CCc3ccccc3C2)cc1)C1CCCO1 (stereo not drawn),EC50,[1],3.27 µM (active)
CCCCCC(=O)NC(=S)NNC(=O)CC,EC50,[2],> 50 µM (active)
COc1cc(C(=O)Nc2ccc3c(c2)OCCO3)ccc1OC(C)C,EC50,[2],> 50 µM (active)
CC(C)(C)OC(=O)CN1C(=O)S/C(=C\c2ccc(-c3cccc(C(=O)O)c3)o2)C1=O,EC50,[3],4.23 µM (active)
COc1ccc(-n2sc3ccc(F)cc3c2=O)cc1,AC50,[4],5.92 µM (active)
same,IC50,[5],45.2 µM (active)
same,AC50,[6],6.6 µM (active)
same,IC50,[7],10.8 µM (active)
same,IC50,[8],> 100 µM (inactive)
same,IC50,[9],6.67 µM (inactive)
same,IC50,Beta Lactamase,19.9 µM (inactive)
same,IC50,[10],5.42 µM (active)
same,CC50,[11],100 µM (active)
CN(Cc1ccccc1)C(=O)CCSc1nc(-c2ccc3c(c2)OCO3)cc(C(F)(F)F)n1,IC50,[12],> 20 µM (inactive)
same,EC50,[1],4.53 µM (active)
CC1=NNC(=O)/C1=C\c1cn(-c2ccccc2)nc1-c1ccc(F)cc1,AC50,[13],6.52 µM (active)
same,IC50,Procathepsin L,> 59.6 µM (not active)
same,IC50,Aspartyl aminopeptidase,0.71 µM (active)
same,AC50,[14],3.69 µM (active)
same,EC50,Protein RecA,1.35 µM (active)
CCOc1ccccc1NC(=O)CSc1nc(N)c(C#N)cc1C#N,IC50,[15],3.03 µM (active)
same,IC50,[16],> 39.8 µM (not active)
